According to PMC10056443, “Derivatives of Amaryllidaceae Alkaloid Ambelline as Selective Inhibitors of Hepatic Stage of Plasmodium berghei Infection In Vitro” (Pharmaceutics, 2023):

Legend:
[1] = test system: resistant Dd2 P. falciparum strain; conditions: cited from earlier work
[2] = test system: multidrug-resistant K1 strain; set-up: method as in doi:10.21577/0103-5053.20190061; conditions: cited from earlier work
[3] = test system: chloroquine-sensitive 3D7 strain; set-up: method as in doi:10.21577/0103-5053.20190061; conditions: cited from earlier work
[4] = test system: hepatic stage of P. berghei; assay: In vitro activity against P. berghei hepatic stages (luciferase-expressing sporozoites in Huh-7 cells, bioluminescence); assay type: cell-based, Plasmodium berghei
In short: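 Huh-7 hepatoma cells pretreated with compounds 1 h, then infected with luciferase-expressing P. berghei sporozoites (1 × 10^4/well, 1:1 ratio) and incubated at 37 °C.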

[5] = Cytotoxicity assessment in vitro (MTT assay); assay type: cell-based; conditions: human; c = 10 µM, 24 h, MTT; read-out: HepG2 % of cell viability compared to non-treated control (100%)
In short: (§1)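 Human HepG2 hepatocellular carcinoma cells (passage 20–25) were treated with compound at 10 μM in triplicate for 24 h at 37 °C, 5% CO2. Viability was then measured by MTT: 3 h incubation, formazan dissolved in DMSO, absorbance read at 570 nm.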

HepG2 cells = assay: Cytotoxicity assessment in vitro (MTT assay); assay type: cell-based; conditions: c = 10 μM, in %
In short: as §1

| SMILES | IC50 [1] [µM] | IC50 [2] [µM] | IC50 [3] [µM] | IC50 ([4]; Plasmodium berghei, Huh-7, 48 h, read-out: IC50 P. berghei) [µM] | activity against P. berghei hepatic stages ([4]; screening at 10 and 1 µM / IC50 determination) | viability at 24 h, 10 µM [5] [%] | Ø screening, HepG2 (sheet Graphs) (HepG2 cells; DMSO = 100) | 1. screening of cytotoxic potential, HepG2 cell line (HepG2 cells; replicate 1) | 2. screening of cytotoxic potential, HepG2 cell line (HepG2 cells; replicate 2) | 3. screening of cytotoxic potential, HepG2 cell line (HepG2 cells; replicate 3) |
| --- | --- | --- | --- | --- | --- | --- | --- | --- | --- | --- |
| CC(=O)O[C@@H]1CC=C2CCN3Cc4cc5c(cc4[C@H]1[C@@H]23)OCO5 [compound 5, acetylcaranine] | 3.5 ± 0.3 |  |  |  |  |  |  |  |  |  |
| O[C@H]1[C@H]2c3cc4c(cc3CN3CCC(=C[C@@H]1O)[C@H]23)OCO4 [compound 6, lycorine] |  | 3.1 | 2.5 |  |  |  |  |  |  |  |
| COc1c2c(cc3c1OCO3)[C@]13C=C[C@H](OC)C[C@H]1N(C2)C[C@@H]3O [compound 28, ambelline] | 7.3 ± 0.3 |  |  | > 10 | neither haemanthamine nor ambelline showed inhibition | 50 ± 1 | 49.86 | 49.93 | 48.36 | 51.3 |
